Experiment: xn = mol fraction of the nth substance listed
Details: 100 kPa

CCCCCCCC[n+]1ccccc1.[Br-] + CC(C)C[C@H](N)C(=O)O + O
Details | electrical conductivity [S/m]
288.15 K, x2 = 0.0008942, x1 = 0.006691 | 1.27
288.15 K, x2 = 0.0008943, x1 = 0.006585 | 1.26
288.15 K, x2 = 0.0008945, x1 = 0.006321 | 1.23
288.15 K, x2 = 0.0008948, x1 = 0.005952 | 1.19
288.15 K, x2 = 0.0008952, x1 = 0.005558 | 1.15
288.15 K, x2 = 0.0008956, x1 = 0.005126 | 1.11
288.15 K, x2 = 0.000896, x1 = 0.004648 | 1.05
288.15 K, x2 = 0.0008965, x1 = 0.00414 | 0.989
288.15 K, x2 = 0.000897, x1 = 0.003579 | 0.891
288.15 K, x2 = 0.0008975, x1 = 0.002951 | 0.778
288.15 K, x2 = 0.0008982, x1 = 0.002257 | 0.635
288.15 K, x2 = 0.0008986, x1 = 0.001784 | 0.529
288.15 K, x2 = 0.000899, x1 = 0.001328 | 0.417
288.15 K, x2 = 0.0008994, x1 = 0.0008528 | 0.298
288.15 K, x2 = 0.001786, x1 = 0.007009 | 1.29
288.15 K, x2 = 0.001787, x1 = 0.006296 | 1.21
288.15 K, x2 = 0.001787, x1 = 0.006626 | 1.25
288.15 K, x2 = 0.001788, x1 = 0.005936 | 1.17
288.15 K, x2 = 0.001789, x1 = 0.005553 | 1.12
288.15 K, x2 = 0.00179, x1 = 0.004654 | 1.02
288.15 K, x2 = 0.00179, x1 = 0.005124 | 1.08
288.15 K, x2 = 0.001791, x1 = 0.004138 | 0.963
288.15 K, x2 = 0.001792, x1 = 0.00359 | 0.869
288.15 K, x2 = 0.001793, x1 = 0.002944 | 0.753
288.15 K, x2 = 0.001795, x1 = 0.001946 | 0.545
288.15 K, x2 = 0.001795, x1 = 0.002309 | 0.625
288.15 K, x2 = 0.001796, x1 = 0.00149 | 0.443
288.15 K, x2 = 0.001797, x1 = 0.0009613 | 0.319
293.15 K, x2 = 0.0008942, x1 = 0.006678 | 1.44
293.15 K, x2 = 0.0008943, x1 = 0.006573 | 1.42
293.15 K, x2 = 0.0008945, x1 = 0.00631 | 1.39
293.15 K, x2 = 0.0008948, x1 = 0.005941 | 1.35
293.15 K, x2 = 0.0008952, x1 = 0.005547 | 1.3
293.15 K, x2 = 0.0008956, x1 = 0.005117 | 1.26
293.15 K, x2 = 0.000896, x1 = 0.004639 | 1.19
293.15 K, x2 = 0.0008965, x1 = 0.004133 | 1.12
293.15 K, x2 = 0.000897, x1 = 0.003572 | 1.01
293.15 K, x2 = 0.0008975, x1 = 0.002945 | 0.879
293.15 K, x2 = 0.0008982, x1 = 0.002253 | 0.718
293.15 K, x2 = 0.0008986, x1 = 0.001782 | 0.597
293.15 K, x2 = 0.000899, x1 = 0.001327 | 0.47
293.15 K, x2 = 0.0008994, x1 = 0.000851 | 0.333
293.15 K, x2 = 0.001786, x1 = 0.006996 | 1.47
293.15 K, x2 = 0.001787, x1 = 0.006286 | 1.38
293.15 K, x2 = 0.001787, x1 = 0.006613 | 1.43
293.15 K, x2 = 0.001788, x1 = 0.005926 | 1.33
293.15 K, x2 = 0.001789, x1 = 0.005542 | 1.28
293.15 K, x2 = 0.00179, x1 = 0.004645 | 1.16
293.15 K, x2 = 0.00179, x1 = 0.005113 | 1.23
293.15 K, x2 = 0.001791, x1 = 0.004131 | 1.09
293.15 K, x2 = 0.001792, x1 = 0.003584 | 0.986
293.15 K, x2 = 0.001793, x1 = 0.002938 | 0.852
293.15 K, x2 = 0.001795, x1 = 0.001937 | 0.616
293.15 K, x2 = 0.001795, x1 = 0.002304 | 0.706
293.15 K, x2 = 0.001796, x1 = 0.001487 | 0.497
293.15 K, x2 = 0.001797, x1 = 0.0009613 | 0.359
298.15 K, x2 = 0.0008942, x1 = 0.006669 | 1.62
298.15 K, x2 = 0.0008943, x1 = 0.006564 | 1.6
298.15 K, x2 = 0.0008945, x1 = 0.006301 | 1.57
298.15 K, x2 = 0.0008948, x1 = 0.005934 | 1.52
298.15 K, x2 = 0.0008952, x1 = 0.00554 | 1.47
298.15 K, x2 = 0.0008956, x1 = 0.00511 | 1.41
298.15 K, x2 = 0.000896, x1 = 0.004634 | 1.34
298.15 K, x2 = 0.0008965, x1 = 0.004127 | 1.25
298.15 K, x2 = 0.000897, x1 = 0.003568 | 1.13
298.15 K, x2 = 0.0008975, x1 = 0.002942 | 0.987
298.15 K, x2 = 0.0008982, x1 = 0.002249 | 0.803
298.15 K, x2 = 0.0008986, x1 = 0.00178 | 0.668
298.15 K, x2 = 0.000899, x1 = 0.001325 | 0.525
298.15 K, x2 = 0.0008994, x1 = 0.000851 | 0.369
298.15 K, x2 = 0.001786, x1 = 0.006987 | 1.66
298.15 K, x2 = 0.001787, x1 = 0.006277 | 1.56
298.15 K, x2 = 0.001787, x1 = 0.006604 | 1.61
298.15 K, x2 = 0.001788, x1 = 0.005918 | 1.51
298.15 K, x2 = 0.001789, x1 = 0.005535 | 1.45
298.15 K, x2 = 0.00179, x1 = 0.00464 | 1.31
298.15 K, x2 = 0.00179, x1 = 0.005107 | 1.38
298.15 K, x2 = 0.001791, x1 = 0.004127 | 1.23
298.15 K, x2 = 0.001792, x1 = 0.003579 | 1.11
298.15 K, x2 = 0.001793, x1 = 0.002934 | 0.956
298.15 K, x2 = 0.001795, x1 = 0.001935 | 0.69
298.15 K, x2 = 0.001795, x1 = 0.002302 | 0.791
298.15 K, x2 = 0.001796, x1 = 0.001485 | 0.558
298.15 K, x2 = 0.001797, x1 = 0.0009595 | 0.394
303.15 K, x2 = 0.0008942, x1 = 0.006659 | 1.8
303.15 K, x2 = 0.0008943, x1 = 0.006555 | 1.79
303.15 K, x2 = 0.0008945, x1 = 0.006292 | 1.76
303.15 K, x2 = 0.0008949, x1 = 0.005925 | 1.71
303.15 K, x2 = 0.0008952, x1 = 0.005533 | 1.65
303.15 K, x2 = 0.0008956, x1 = 0.005102 | 1.58
303.15 K, x2 = 0.000896, x1 = 0.004627 | 1.5
303.15 K, x2 = 0.0008965, x1 = 0.00412 | 1.4
303.15 K, x2 = 0.000897, x1 = 0.003563 | 1.26
303.15 K, x2 = 0.0008975, x1 = 0.002936 | 1.1
303.15 K, x2 = 0.0008982, x1 = 0.002246 | 0.893
303.15 K, x2 = 0.0008986, x1 = 0.001776 | 0.741
303.15 K, x2 = 0.000899, x1 = 0.001323 | 0.582
303.15 K, x2 = 0.0008994, x1 = 0.0008492 | 0.411
303.15 K, x2 = 0.001786, x1 = 0.006976 | 1.88
303.15 K, x2 = 0.001787, x1 = 0.006268 | 1.76
303.15 K, x2 = 0.001787, x1 = 0.006595 | 1.81
303.15 K, x2 = 0.001788, x1 = 0.005909 | 1.69
303.15 K, x2 = 0.001789, x1 = 0.005527 | 1.63
303.15 K, x2 = 0.00179, x1 = 0.004633 | 1.47
303.15 K, x2 = 0.00179, x1 = 0.0051 | 1.56
303.15 K, x2 = 0.001791, x1 = 0.00412 | 1.37
303.15 K, x2 = 0.001792, x1 = 0.003575 | 1.24
303.15 K, x2 = 0.001793, x1 = 0.002931 | 1.07
303.15 K, x2 = 0.001795, x1 = 0.001932 | 0.767
303.15 K, x2 = 0.001795, x1 = 0.002298 | 0.88
303.15 K, x2 = 0.001796, x1 = 0.001483 | 0.619
303.15 K, x2 = 0.001797, x1 = 0.0009576 | 0.441
308.15 K, x2 = 0.0008942, x1 = 0.00665 | 2.05
308.15 K, x2 = 0.0008943, x1 = 0.006544 | 2.03
308.15 K, x2 = 0.0008945, x1 = 0.006283 | 1.98
308.15 K, x2 = 0.0008949, x1 = 0.005916 | 1.91
308.15 K, x2 = 0.0008952, x1 = 0.005524 | 1.83
308.15 K, x2 = 0.0008956, x1 = 0.005093 | 1.76
308.15 K, x2 = 0.000896, x1 = 0.00462 | 1.66
308.15 K, x2 = 0.0008965, x1 = 0.004115 | 1.53
308.15 K, x2 = 0.000897, x1 = 0.003557 | 1.39
308.15 K, x2 = 0.0008975, x1 = 0.002933 | 1.2
308.15 K, x2 = 0.0008982, x1 = 0.002244 | 0.971
308.15 K, x2 = 0.0008986, x1 = 0.001775 | 0.809
308.15 K, x2 = 0.000899, x1 = 0.001321 | 0.643
308.15 K, x2 = 0.0008994, x1 = 0.0008474 | 0.461
308.15 K, x2 = 0.001786, x1 = 0.006965 | 2.11
308.15 K, x2 = 0.001787, x1 = 0.006586 | 2.04
308.15 K, x2 = 0.001788, x1 = 0.0059 | 1.9
308.15 K, x2 = 0.001788, x1 = 0.006259 | 1.97
308.15 K, x2 = 0.001789, x1 = 0.005518 | 1.82
308.15 K, x2 = 0.00179, x1 = 0.004626 | 1.64
308.15 K, x2 = 0.00179, x1 = 0.005091 | 1.73
308.15 K, x2 = 0.001791, x1 = 0.004114 | 1.51
308.15 K, x2 = 0.001792, x1 = 0.003568 | 1.37
308.15 K, x2 = 0.001793, x1 = 0.002925 | 1.17
308.15 K, x2 = 0.001795, x1 = 0.00193 | 0.836
308.15 K, x2 = 0.001795, x1 = 0.002295 | 0.962
308.15 K, x2 = 0.001796, x1 = 0.001481 | 0.683
308.15 K, x2 = 0.001797, x1 = 0.0009558 | 0.483

Source: the CheMixHub ionic liquid set
